The results in this text go back to PubChem BioAssay (NCI).

Common to all, as to assay: NCI anticancer screen, dose series, 48 h
The test system of test [1] is SK-MEL-5 melanoma.
Test [2] has as its system PC-3 prostate.
Test [3] has as its system HS 578T breast.
Test [4] deals with HOP-62 NSCLC.
Test [5] concerns K-562 leukemia.
Test [6] concerns IGROV1 ovarian.
Test [7] deals with HCT-116 colon.
Test [8] deals with SN12C renal.
For test [9], the system named is U251 CNS.
Test [10] concerns SR leukemia.

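Cells were grown in 96-well plates and exposed to each compound for 48 hours at five concentrations; endpoints were interpolated linearly between bracketing concentrations, or set to the highest concentration if not reached. GI50 = concentration required for 50% inhibition of growth. TGI denotes the concentration required for complete inhibition of growth.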

Consider `C=C(c1ccc(OC)c(/C=C/C(=O)c2cc(OC)c(OC)c(OC)c2)c1)c1cc(OC)c(OC)c(OC)c1`, for which the GI50 is 1180 nM in test [1]; 1300 nM in test [2]; 1460 nM in test [3]; 2270 nM in test [4]; 922 nM in test [5]; 2070 nM in [6]. The GI50 in test [7] was 609 nM; in test [8] it was 1870 nM; in [9] it was 773 nM; in test [10], 460 nM. Moreover, the TGI was 2.5 µM in test [1]; 5.31 µM in test [2]; 50 µM in test [3]; 6.68 µM in test [4]; 10.7 µM in test [5]; 5.88 µM in test [6]. Moreover, the TGI in test [7] turned out to be 1.9 µM; in test [8], 9.55 µM; in test [9], 2.12 µM; in [10] it was 8.79 µM.

In the case of `O=C(CC(O)c1cccnc1)CC(O)c1cccnc1` (stereo not given), the TGI in test [1] was 32.2 µM; in test [2] it was 42.9 µM; in [3], greater than 100 µM; in test [4] it was 50.8 µM; in test [5] it was greater than 51.5 µM; in test [6], 29.9 µM. For the same compound, the TGI in test [7] is 4.33 µM; in test [8], 38.8 µM; in [9], 33 µM; in [10], greater than 100 µM.

For `C/C(=N\NC(=O)c1cccc(S(=O)(=O)N2CCN(C)CC2)c1)c1cc(Cl)ccc1O`, the GI50 in test [1] is 1290 nM; in test [2], 1180 nM; in test [3], 4540 nM; in [4], 461 nM; in test [5], 824 nM; in test [6], 677 nM. The GI50 was 480 nM in test [7], 1190 nM in [8], 414 nM in test [9] and 383 nM in [10]. For the same compound, the TGI in [1] is 3.87 µM; in [2], greater than 100 µM; in test [3], greater than 74.8 µM; in test [4] it was 37.3 µM; in test [5] it was greater than 52.8 µM; in test [6], greater than 66.5 µM. Further, the TGI in test [7] was greater than 76.2 µM; in test [8], greater than 100 µM; in [9], greater than 100 µM; in test [10], greater than 52.9 µM.

For the compound `CC[C@]12C=CCN3CC[C@@]4(c5ccc(OC)cc5N(C)[C@H]4[C@@](O)(C(=O)OC)[C@@H]1OC(=O)CCCC[P+](c1ccccc1)(c1ccccc1)c1ccccc1)[C@@H]32`, the GI50 in test [1] is 1690 nM; in [2], 391 nM; in [3] it was 1340 nM; in test [4] it was 2940 nM; in test [5], 789 nM; in test [6] it was 486 nM. In addition, the GI50 in test [7] was 777 nM; in test [8] it was 414 nM; in test [9] it was 441 nM; in [10], 446 nM. For the same compound, the TGI in test [1] turned out to be 3.08 µM; in test [2] it was 7.77 µM; in [3] it was 9.11 µM; in test [4] it was 13.7 µM; in test [5], 11.4 µM; in [6] it was 1.98 µM. Also, the TGI in test [7] came to 12 µM; in [8], 8.26 µM; in test [9], 4.4 µM; in test [10], 4.14 µM.

Take `CCCCCCCCCCCCCCCCSS(C)(=O)=O`: the TGI in test [1] was 59 µM; in test [2] it was greater than 100 µM; in test [3], greater than 100 µM; in test [4] it was greater than 100 µM; in test [5], 27.9 µM; in test [6], greater than 61.3 µM. For the same compound, the TGI in test [7] was 43.5 µM; in test [8], greater than 69.5 µM; in [9] it was greater than 100 µM; in test [10], 21.1 µM.

For `Nc1c(C(=O)c2cccc(C(O)(CO)CO)c2)cnn1-c1ccc(F)cc1`, the GI50 in [1], in test [2], in test [3], in test [4], in test [5] and in test [6] was greater than 25000 nM in each case. For the same compound, the GI50 in test [7], in [8], in test [9] and in test [10] was greater than 25000 nM throughout. The TGI in [1], in test [2], in test [3], in test [4], in test [5] and in test [6] was greater than 25 µM throughout. For the same compound, the TGI in test [7], in test [8], in test [9] and in test [10] was greater than 25 µM each time.

For the compound `Cc1c(C)n(CC(O)CNC2CCCCC2C)c2ccccc12` (stereo not given), the GI50 in [1] is 12600 nM; in [2] it was 13400 nM; in test [3], 16300 nM; in test [4] it was 16600 nM; in test [5], 3930 nM; in [6], 16000 nM. In addition, the GI50 in [7] is 12000 nM; in test [8] it was 16000 nM; in [9], 13800 nM; in [10] it was 12400 nM. For the same compound, the TGI in [1] was 25.4 µM; in test [2] it was 26.2 µM; in [3] it was 43 µM; in test [4], 32 µM; in test [5] it was 20.1 µM; in test [6], 31.9 µM. In addition, the TGI in [7] is 24.4 µM; in test [8], 30.5 µM; in test [9], 26.7 µM; in test [10] it was 34.1 µM.

Regarding `COc1ccc(/C=C(/C(=O)N2CCN(c3ccc(C)cc3)CC2)c2cc(OC)c(OC)c(OC)c2)cc1N`, the GI50 was 228 nM in [1]; 312 nM in test [2]; 291 nM in test [3]; 474 nM in [4]; 222 nM in test [5]; 304 nM in test [6]. Moreover, the GI50 in test [7] is 254 nM; in test [8] it was 483 nM; in test [9], 397 nM; in [10] it was 238 nM. In addition, the TGI is 0.661 µM in test [1]; greater than 100 µM in [2]; greater than 100 µM in test [3]; greater than 100 µM in [4]; greater than 100 µM in test [5]; greater than 100 µM in test [6]. The TGI was greater than 32.9 µM in test [7], greater than 100 µM in test [8], greater than 100 µM in test [9] and greater than 100 µM in test [10].

Turning to `COc1ccc(C(=O)OC2C(OC3C(O)COC(O[C@H]4C[C@H]5[C@@H]6CC=C7C[C@@H](O)CC[C@]7(C)[C@H]6CC[C@]5(C)[C@H]4[C@H](C)C(=O)CCC(C)C)C3OC(=O)C(C)C)OCC(O)C2O)cc1` (stereo not given in full), the GI50 is 19 nM in [1]; 8.21 nM in [2]; 3.43 nM in test [3]; 12.9 nM in [4]; 12.7 nM in [5]; 21.9 nM in test [6]. Moreover, the GI50 is 10.7 nM in [7], 3020 nM in test [8], 3.81 nM in test [9] and 12.1 nM in test [10]. Besides, the TGI in test [1] was 0.36 µM; in test [2] it was 0.446 µM; in test [3], 0.0441 µM; in test [4], 1.45 µM; in [5] it was 0.516 µM; in test [6], 4.22 µM. Further, the TGI in [7] stood at 3.25 µM; in [8], 6.53 µM; in test [9], 4.16 µM; in test [10], 3.34 µM.

On to `CS(=O)(=O)c1nccc(-c2c(-c3cccc(OCc4ccccc4)c3)nc3sccn23)n1`, for which the GI50 is 1390 nM in test [1]; 6350 nM in [2]; 12900 nM in test [3]; greater than 80900 nM in test [4]; 5290 nM in test [5]; 10300 nM in test [6]. Moreover, the GI50 in test [7] is 7160 nM; in test [8], 26200 nM; in test [9], 19600 nM; in [10], 4490 nM. Further, the TGI in test [1] is 10 µM; in test [2], greater than 26.8 µM; in [3], greater than 100 µM; in [4], greater than 100 µM; in [5], greater than 100 µM; in test [6], greater than 100 µM. For the same compound, the TGI in test [7], in test [8], in test [9] and in test [10] was greater than 100 µM throughout.

Regarding `NNC(=O)C(O)C(O)C(O)CO` (stereo not given), the TGI in test [1], in test [2], in [3], in [4], in test [5] and in test [6] was greater than 100 µM in each case. For the same compound, the TGI in test [7], in test [8], in test [9] and in test [10] was greater than 100 µM in each case.
